PMC5646861 (PLoS ONE, 2017)

Tests used:
[1] = target: T1, SMO-1 (Caenorhabditis elegans, UniProt P55853); experiment: NMR titration (15N-HSQC chemical shift perturbation) of SMO-1 with SIM peptides; type: binding; set-up: inferred from pET15b vector with NdeI/BamHI and Ni-NTA purification) (N); made in house; host or cells: E. coli BL21(DE3)
[2] = target: T1, SMO-1; experiment: In vitro SMO-1 conjugation assay with FITC-labelled synthetic peptide substrate (human Aos1/Uba2 E1, human Ubc9 E2); type: biochemical, C. elegans; set-up: inferred from pET15b vector with NdeI/BamHI and Ni-NTA purification) (N); made in house; settings: 10mM of peptide, 50 μM SMO-1 or SUMO1, 1 μM E1, 2.5 μM E2, 1 mM ATP, 4°C, 12 hours, 20 mM Tris-Cl pH 8.5, 250 mM NaCl, 5 mM MgCl2, 0.1% v/v Tween 20; SDS-PAGE, FITC fluorescence 519 nm
Description: A synthetic peptide, sequence–[…] with Fluorescein iso-thiocyanate (FITC) label at the N-terminus was used as substrate. […] Reaction was carried out at 4°C for 12 hours. The reaction was started by adding 1 mM ATP. Reaction buffer contained 20 mM Tris-Cl pH 8.5, 250 mM NaCl, 5 mM MgCl2, 0.1% v/v Tween 20. […] Reaction buffer was the same as above. The reaction was carried out at 37°C for 4 hours. All reactions were stopped by adding reducing SDS loading dye. Reaction samples were run on 12% w/v SDS PAGE and analysed by probing FITC fluorescence at 519 nm wavelength (excitation wavelength– 495 nm).
To assess the ability of SMO-1 to be conjugated and deconjugated to substrates we developed an in vitro assay. […] As a substrate we used a synthetic peptide harbouring two consensus SUMOylation sites found in the IE2 protein (Fig 6A). To facilitate detection of SUMOylated peptide on SDS-PAGE gels we labelled the peptide with Fluorescein iso-thiocyanate (FITC) fluorophore. […] To verify, we carried out an in-vitro reaction with FITC tagged SMO-1.
(A) Sequence of FITC fluorophore labelled peptide used as substrate in in vitro SUMOylation assays. The lysines competent for SUMOylation are in bigger font and in bold face. All subsequent images were obtained by observing FITC fluorescence at 519 nm unless otherwise mentioned. […] The SDS-PAGE gel is imaged by observing YFP fluorescence. […]
Target sequence in this assay (P55853 1-90): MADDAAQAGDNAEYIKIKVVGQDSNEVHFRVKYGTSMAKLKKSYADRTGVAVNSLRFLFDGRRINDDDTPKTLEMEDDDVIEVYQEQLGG
Target sequence in this assay (P63279 whole entry, further chain): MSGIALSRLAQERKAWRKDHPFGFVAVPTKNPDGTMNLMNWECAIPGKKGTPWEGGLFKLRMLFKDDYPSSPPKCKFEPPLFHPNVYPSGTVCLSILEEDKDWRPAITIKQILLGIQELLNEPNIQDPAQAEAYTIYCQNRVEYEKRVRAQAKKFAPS

[3] = test system: SMO-1-YFP; experiment: De-conjugation (maturation) assay of SMO-1-YFP with SENP2; type: biochemical, C. elegans; settings: 50mM Tris-Cl pH 7.5 @ 25°C, 150mM NaCl, 1mM DTT; 25–37°C, 6 hours; SDS-PAGE, YFP fluorescence and Coomassie
Description: (§1) Deconjugation Assays were performed by adding 10μM SENP2 to poly-SUMO1/2 and poly-SMO-1 chains in the same reaction mix used for conjugation. Deconjugation reaction was carried out at 25°C for 2–3 hours. Reactions were stopped by adding reducing SDS loading dye. Reaction samples were run on 12% w/v SDS PAGE and analysed by probing FITC fluorescence at 519 nm wavelength (excitation wavelength– 495 nm). SMO-1-YFP was checked for deconjugation in 50mM Tris-Cl pH 7.5 @ 25°C, 150mM NaCl, 1mM DTT reaction buffer. SENP2 was mixed with SMO-1-YFP and incubated at temperatures from 25–37°C for 6 hours. The reaction mix were then run separately on two SDS-PAGE gels for imaging using fluorescence and for staining with Coomassie Brilliant Blue R-250 Dye.
(§2) DeSUMOylation enzymes can cleave SUMO chains, making the process reversible to enable another level of control over the SUMOylation process.

[4] = test system: substrate-polySMO-1 conjugates; experiment: In vitro SMO-1 deconjugation assay with SENP2 on SMO-1 chains from the peptide; type: biochemical; settings: 10μM SENP2 (human), same reaction mix as conjugation, 25°C, 2–3 hours; SDS-PAGE, FITC fluorescence
Description: as §1, §2

CC[C@H](C)[C@H](NC(=O)[C@H](CS)NC(=O)CNC(=O)[C@H](C)NC(=O)[C@@H](NC(=O)[C@@H](N)CC(=O)O)[C@@H](C)O)C(=O)N[C@H](C(=O)N[C@H](C(=O)N[C@@H](CO)C(=O)N[C@@H](CC(=O)O)C(=O)N[C@@H](CO)C(=O)N[C@@H](CCC(=O)O)C(=O)N[C@@H](CCC(=O)O)C(=O)N[C@@H](CCC(=O)O)C(=O)N[C@@H](CCC(N)=O)C(=O)NCC(=O)N[C@@H](CCC(=O)O)C(=O)N[C@@H](CCC(=O)O)C(=O)N[C@@H](Cc1c[nH]c2ccccc12)C(=O)O)[C@@H](C)CC)C(C)C [IE2-SIM]
Kd [1]: 108 µM

PLIKQEDIKPEPDFTIQYRNKIIDTAGCIVISDSEEE [synthetic peptide, synthetic peptide harbouring two consensus SUMOylation sites found in the IE2 protein]
SMO-1 conjugation on the substrate [2]: Rapid SMO-1 conjugation was observed on the substrate

B1: SENP2: human deSUMOylation enzyme (protein, UniProt Q9HC62 1-589, looked up)
Sentrin-specific protease 2: MYRWLVRILGTIFRFCDRSVPPARALLKRRRSDSTLFSTVDTDEIPAKRPRLDCFIHQVKNSLYNAASLFGFPFQLTTKPMVTSACNGTRNVAPSGEVFSNSSSCELTGSGSWNNMLKLGNKSPNGISDYPKIRVTVTRDQPRRVLPSFGFTLNSEGCNRRPGGRRHSKGNPESSLMWKPQEQAVTEMISEESGKGLRRPHCTVEEGVQKEEREKYRKLLERLKESGHGNSVCPVTSNYHSSQRSQMDTLKTKGWGEEQNHGVKTTQFVPKQYRLVETRGPLCSLRSEKRCSKGKITDTETMVGIRFENESRRGYQLEPDLSEEVSARLRLGSGSNGLLRRKVSIIETKEKNCSGKERDRRTDDLLELTEDMEKEISNALGHGPQDEILSSAFKLRITRGDIQTLKNYHWLNDEVINFYMNLLVERNKKQGYPALHVFSTFFYPKLKSGGYQAVKRWTKGVNLFEQEIILVPIHRKVHWSLVVIDLRKKCLKYLDSMGQKGHRICEILLQYLQDESKTKRNSDLNLLEWTHHSMKPHEIPQQLNGSDCGMFTCKYADYISRDKPITFTQHQMPLFRKKMVWEILHQQLL
cleavage of SMO-1 from SMO-1-YFP by SENP2 [3]: could cleave SMO-1 from SMO-1-YFP | cleavage of SMO-1 chains from peptide by SENP2 [4]: could efficiently edit the SMO-1 chains from the peptide
